From PubChem BioAssay (NCI)
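All cell lines were grown in 96-well plates and treated with compound for 48 hours. The concentration for 50% growth inhibition is given as GI50. TGI is the concentration that stops growth completely.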

Legend:
Assay in all cases: growth of human tumour cells (NCI), 48 h; in the data active means GI50 below about 0.43 µM; inactive means the rest
786-0 renal = tested on: 786-0 renal
A498 renal = tested on: A498 renal
A549 NSCLC = tested on: A549 NSCLC
ACHN renal = tested on: ACHN renal
BT-549 breast = tested on: BT-549 breast
CAKI-1 renal = tested on: CAKI-1 renal
CCRF-CEM leukemia = tested on: CCRF-CEM leukemia
COLO 205 colon = tested on: COLO 205 colon
DU-145 prostate = tested on: DU-145 prostate
EKVX NSCLC = tested on: EKVX NSCLC
HCC-2998 colon = tested on: HCC-2998 colon
HCT-116 colon = tested on: HCT-116 colon
HCT-15 colon = tested on: HCT-15 colon
HL-60(TB) leukemia = tested on: HL-60(TB) leukemia
HOP-62 NSCLC = tested on: HOP-62 NSCLC
HOP-92 NSCLC = tested on: HOP-92 NSCLC
HS 578T breast = tested on: HS 578T breast
HT29 colon = tested on: HT29 colon
IGROV1 ovarian = tested on: IGROV1 ovarian
K-562 leukemia = tested on: K-562 leukemia
KM12 colon = tested on: KM12 colon
LOX IMVI melanoma = tested on: LOX IMVI melanoma
M14 melanoma = tested on: M14 melanoma
MALME-3M melanoma = tested on: MALME-3M melanoma
MCF7 breast = tested on: MCF7 breast
MDA-MB-231 breast = tested on: MDA-MB-231 breast
MDA-MB-435 = tested on: MDA-MB-435
MOLT-4 leukemia = tested on: MOLT-4 leukemia
NCI-H226 lung = tested on: NCI-H226 lung
NCI-H23 lung = tested on: NCI-H23 lung
NCI-H460 lung = tested on: NCI-H460 lung
NCI-H522 lung = tested on: NCI-H522 lung
NCI/ADR-RES ovarian = tested on: NCI/ADR-RES ovarian
OVCAR-3 ovarian = tested on: OVCAR-3 ovarian
OVCAR-4 ovarian = tested on: OVCAR-4 ovarian
OVCAR-5 ovarian = tested on: OVCAR-5 ovarian
OVCAR-8 ovarian = tested on: OVCAR-8 ovarian
PC-3 prostate = tested on: PC-3 prostate
RPMI-8226 leukemia = tested on: RPMI-8226 leukemia
RXF 393 renal = tested on: RXF 393 renal
SF-268 CNS = tested on: SF-268 CNS
SF-295 CNS = tested on: SF-295 CNS
SF-539 CNS = tested on: SF-539 CNS
SK-MEL-2 melanoma = tested on: SK-MEL-2 melanoma
SK-MEL-28 melanoma = tested on: SK-MEL-28 melanoma
SK-MEL-5 melanoma = tested on: SK-MEL-5 melanoma
SK-OV-3 ovarian = tested on: SK-OV-3 ovarian
SN12C renal = tested on: SN12C renal
SNB-19 CNS = tested on: SNB-19 CNS
SNB-75 CNS = tested on: SNB-75 CNS
SR leukemia = tested on: SR leukemia
SW-620 colon = tested on: SW-620 colon
T-47D breast = tested on: T-47D breast
TK-10 renal = tested on: TK-10 renal
U251 CNS = tested on: U251 CNS
UACC-257 melanoma = tested on: UACC-257 melanoma
UACC-62 melanoma = tested on: UACC-62 melanoma
UO-31 renal = tested on: UO-31 renal

CN(C)CCCNC1=C(Cl)C(=O)c2ccccc2C1=O
2.67 µM: TGI (SNB-75 CNS)
17.5 µM: TGI (HOP-62 NSCLC)
14.4 µM: TGI (CCRF-CEM leukemia)
25.2 µM: TGI (NCI-H460 lung)
12.3 µM: TGI (HOP-92 NSCLC)
inactive: GI50 (786-0 renal) 11.3 µM | GI50 (A498 renal) 12.7 µM | GI50 (A549 NSCLC) 16.1 µM | GI50 (ACHN renal) 4.96 µM | GI50 (BT-549 breast) 2.14 µM | GI50 (CAKI-1 renal) 7.14 µM | GI50 (CCRF-CEM leukemia) 3.9 µM | GI50 (COLO 205 colon) 1.9 µM | GI50 (DU-145 prostate) 1.92 µM | GI50 (EKVX NSCLC) 1.72 µM | GI50 (HCC-2998 colon) 1.96 µM | GI50 (HCT-116 colon) 2.28 µM | GI50 (HCT-15 colon) 1.76 µM | GI50 (HL-60(TB) leukemia) 2.54 µM | GI50 (HOP-62 NSCLC) 6.23 µM | GI50 (HOP-92 NSCLC) 2.86 µM | GI50 (HS 578T breast) 2.2 µM | GI50 (HT29 colon) 2.5 µM | GI50 (IGROV1 ovarian) 2.01 µM | GI50 (K-562 leukemia) 2.47 µM | GI50 (KM12 colon) 5.93 µM | GI50 (LOX IMVI melanoma) 1.61 µM | GI50 (M14 melanoma) 1.83 µM | GI50 (MALME-3M melanoma) 2.06 µM | GI50 (MCF7 breast) 1.61 µM | GI50 (MDA-MB-231 breast) 1.79 µM | GI50 (MDA-MB-435) 1.9 µM | GI50 (MOLT-4 leukemia) 3.02 µM | GI50 (NCI-H226 lung) 5.38 µM | GI50 (NCI-H23 lung) 1.74 µM | GI50 (NCI-H460 lung) 8.61 µM | GI50 (NCI-H522 lung) 2.03 µM | GI50 (NCI/ADR-RES ovarian) 7.93 µM | GI50 (OVCAR-3 ovarian) 1.69 µM | GI50 (OVCAR-4 ovarian) 1.62 µM | GI50 (OVCAR-5 ovarian) 4.27 µM | GI50 (OVCAR-8 ovarian) 2.08 µM | GI50 (PC-3 prostate) 3.12 µM | GI50 (RPMI-8226 leukemia) 4.25 µM | GI50 (RXF 393 renal) 1.69 µM | GI50 (SF-268 CNS) 4.88 µM | GI50 (SF-295 CNS) 7.23 µM | GI50 (SF-539 CNS) 12.8 µM | GI50 (SK-MEL-2 melanoma) 2.11 µM | GI50 (SK-MEL-28 melanoma) 1.88 µM | GI50 (SK-MEL-5 melanoma) 1.6 µM | GI50 (SK-OV-3 ovarian) 15 µM | GI50 (SN12C renal) 1.62 µM | GI50 (SNB-19 CNS) 1.76 µM | GI50 (SNB-75 CNS) 1.36 µM | GI50 (SR leukemia) 2.8 µM | GI50 (SW-620 colon) 1.69 µM | GI50 (T-47D breast) 2.94 µM | GI50 (TK-10 renal) 15.4 µM | GI50 (U251 CNS) 1.83 µM | GI50 (UACC-257 melanoma) 1.82 µM | GI50 (UACC-62 melanoma) 1.7 µM | GI50 (UO-31 renal) 12.4 µM
3.27 µM: TGI (U251 CNS)
3.87 µM: TGI (NCI-H23 lung)
6.04 µM: TGI (HCT-116 colon)
3.41 µM: TGI (EKVX NSCLC) | TGI (SK-MEL-28 melanoma)
3.64 µM: TGI (DU-145 prostate) | TGI (MDA-MB-435)
10.6 µM: TGI (NCI-H226 lung)
19.3 µM: TGI (KM12 colon)
3.53 µM: TGI (MCF7 breast)
3.83 µM: TGI (NCI-H522 lung)
4.15 µM: TGI (SK-MEL-2 melanoma)
24.2 µM: TGI (786-0 renal)
3.38 µM: TGI (M14 melanoma)
4.09 µM: TGI (HCT-15 colon)
3.45 µM: TGI (COLO 205 colon) | TGI (HCC-2998 colon)
25.4 µM: TGI (A498 renal)
27 µM: TGI (SF-539 CNS) | TGI (UO-31 renal)
9.33 µM: TGI (T-47D breast)
9.51 µM: TGI (ACHN renal)
7.61 µM: TGI (SR leukemia)
3.28 µM: TGI (SNB-19 CNS)
7.02 µM: TGI (HS 578T breast)
29 µM: TGI (TK-10 renal)
3.19 µM: TGI (UACC-62 melanoma)
32.5 µM: TGI (A549 NSCLC)
31.8 µM: TGI (NCI/ADR-RES ovarian)
20.7 µM: TGI (CAKI-1 renal)
3.25 µM: TGI (UACC-257 melanoma)
9.63 µM: TGI (OVCAR-5 ovarian)
3.94 µM: TGI (MDA-MB-231 breast)
3.77 µM: TGI (MALME-3M melanoma)
4.39 µM: TGI (OVCAR-8 ovarian)
8.27 µM: TGI (MOLT-4 leukemia)
2.96 µM: TGI (SK-MEL-5 melanoma)
3.17 µM: TGI (LOX IMVI melanoma) | TGI (OVCAR-3 ovarian)
21.4 µM: TGI (RPMI-8226 leukemia) | TGI (SF-295 CNS)
4.12 µM: TGI (IGROV1 ovarian)
3.14 µM: TGI (RXF 393 renal)
3.12 µM: TGI (SN12C renal)
2.98 µM: TGI (OVCAR-4 ovarian)
5.84 µM: TGI (HL-60(TB) leukemia)
13.2 µM: TGI (PC-3 prostate)
6.03 µM: TGI (K-562 leukemia)
4.96 µM: TGI (BT-549 breast)
3.42 µM: TGI (SW-620 colon)
5.25 µM: TGI (HT29 colon)
28.3 µM: TGI (SK-OV-3 ovarian)

CC(C)=C1C(=O)C[C@]2(C)C[C@H]3O[C@]3(C)CC[C@@H]3O[C@@]3(C)CC[C@@H]12
> 50 µM: TGI (786-0 renal) | TGI (A498 renal) | TGI (A549 NSCLC) | TGI (ACHN renal) | TGI (BT-549 breast) | TGI (CAKI-1 renal) | TGI (CCRF-CEM leukemia) | TGI (COLO 205 colon) | TGI (DU-145 prostate) | TGI (EKVX NSCLC) | TGI (HCC-2998 colon) | TGI (HCT-116 colon) | TGI (HCT-15 colon) | TGI (HL-60(TB) leukemia) | TGI (HOP-62 NSCLC) | TGI (HOP-92 NSCLC) | TGI (HS 578T breast) | TGI (HT29 colon) | TGI (IGROV1 ovarian) | TGI (K-562 leukemia) | TGI (KM12 colon) | TGI (LOX IMVI melanoma) | TGI (M14 melanoma) | TGI (MCF7 breast) | TGI (MDA-MB-231 breast) | TGI (MDA-MB-435) | TGI (MOLT-4 leukemia) | TGI (NCI-H226 lung) | TGI (NCI-H23 lung) | TGI (NCI-H460 lung) | TGI (NCI-H522 lung) | TGI (NCI/ADR-RES ovarian) | TGI (OVCAR-3 ovarian) | TGI (OVCAR-4 ovarian) | TGI (OVCAR-5 ovarian) | TGI (OVCAR-8 ovarian) | TGI (PC-3 prostate) | TGI (RPMI-8226 leukemia) | TGI (RXF 393 renal) | TGI (SF-268 CNS) | TGI (SF-295 CNS) | TGI (SF-539 CNS) | TGI (SK-MEL-2 melanoma) | TGI (SK-MEL-28 melanoma) | TGI (SK-OV-3 ovarian) | TGI (SN12C renal) | TGI (SNB-19 CNS) | TGI (SNB-75 CNS) | TGI (SR leukemia) | TGI (SW-620 colon) | TGI (T-47D breast) | TGI (TK-10 renal) | TGI (U251 CNS) | TGI (UACC-257 melanoma) | TGI (UACC-62 melanoma) | TGI (UO-31 renal)
